Laboratory results as given in patent publication US20250188075A1, “SUBSTITUTED HETEROCYCLIC CSNK1 INHIBITORS” (The Broad Institute, Inc., priority 2022, published 2025).
Read-outs that look alike come from different tables or passages of the source.

How the values were obtained:
LoVo cells = experiment: LoVo cell proliferation assay, CTG method; type: cell-based; settings: 96 h, median, read-out: 2D-PROLI LoVo CTG 96 h, IC50 - [mol/l] (median)
Protocol: CELL PROLIFERATION ASSAY CTG METHOD, 384-well version: Day 1: plate 400 cells/30 μL/well in growth medium (RPMI 1640 (Gibco #61870-10; with Glutamax)+10% FBS) in 384-well black plates (Corning #3571). Plated sister wells in a separate plate for time zero determination. Incubated all plates overnight at 37° C. Day 2: added test compounds in serial dilutions using the HP D300 Digital Dispenser and incubate at 37° C. for 96 h. Measured time zero plate: add 30 μL/well CTG solution (Promega CellTiter-Glo solution (catalog #G7573)) to wells in time zero plate; incubated for 2 minutes in a orbital shaker to induce cell lysis; allowed the plate to incubate at room temperature for additional 10 min to stabilize luminescent signal and read luminescence on PheraStar (rapid mode-0.02 sec/well; GAIN 3000). Day 6: Added 30 μL/well CTG solution to all test wells, incubated for 2 minutes in a orbital shaker to induce cell lysis; allowed the plate to incubate at room temperature for additional 10 min to stabilize luminescent signal and read luminescence on PheraStar (rapid mode-0.02 sec/well; GAIN 3000). Proliferation IC50s were calculated using the DRC application in ShiNy Analysis Platform-SNAP.”

HCT 116 cells = experiment: HCT 116 cell proliferation assay, CTG; type: cell-based; settings: HCT 116, CTG, 96 h, median, read-out: 2D-PROLI HCT 116 CTG 96 h, IC50 - [mol/l] (median)
Protocol: 400 HCT 116 cells/30 μL/well were plated in growth medium (DMEM/Ham's F12, 10% FCS) in a 384-well plate (CORNING #3571) at day 1. Reference plate was seeded for time zero determination. All plates were incubated overnight 37° C. Day 2: test compound was added in 7-step dilution and incubate at 37° C. for 96 h. Day 2: time zero plate: 30 μL/well CTG solution (Promega Cell Titer Glo solution; catalog #G755B and G756B) were added, incubated for 30 minutes, read luminescence on PheraStar. Day 6: compound treated plates: 30 μL/well CTG solution (Promega Cell Titer Glo solution; catalog #G755B and G756B) were added, incubated for 30 minutes, luminescence was read on PheraStar. Proliferation was calculated after subtracting time zero luminescence values from day 6 values and comparing to untreated wells. The IC50 values were determined using the four parameter fit.

human CSNK1D = human CSNK1D (Homo sapiens (Human), UniProt P48730); experiment: CSNK1D assay (ADP-Glo, 1 μM ATP); type: biochemical; settings: median, read-out: CSNK1D IC50 [mol/l] (median)
Protocol: CSNK1D-inhibitory activity of compounds of the present invention in presence of 1 μM adenosine-tri-phosphate (ATP) was quantified employing the CSNK1D assay as described in the following paragraphs. In essence, the enzyme activity is measured by quantification of the adenosine-di-phosphate (ADP), which is generated as a co-product of the enzyme reaction, via the “ADP-Glo™ Kinase Assay” kit from the company Promega. This detection system works as follows: In a first step the ATP not consumed in the kinase reaction is quantitatively converted to CAMP employing an adenylate cyclase (“ADP-Glo-reagent”), then the adenylate cyclase is stopped and the ADP generated in the kinase reaction converted to ATP which generates in a luciferase-based reaction a glow-luminescence signal (“Kinase Detection Reagent”).
Recombinant fusion protein of N-terminal Glutathion-S-Transferase (GST) and full-length human CSNK1D, expressed by baculovirus infected insect cells and purified via Glutathion affinity chromatography, was purchased from Life Technologies (product no. PV3665) and used as enzyme. As substrate for the kinase reaction the biotinylated peptide Btn-Ahx-SGSEGDSESGEEEG (C-terminus in amide form) was used which can be purchased e.g. from the company Biosyntan (Berlin-Buch, Germany).
For the assay 50 nl of a 100-fold concentrated solution of the test compound in DMSO was pipetted into a white 1536-well microtiter plate (Greiner Bio-One, Frickenhausen, Germany), 2 μL of a solution of CSNK1D in aqueous assay buffer [50 mM HEPES pH 7.5, 10% (v/v) glycerol, 10 mM MgCl2, 50 mM NaCl, 1 mM dithiothreitol, 0.01% (w/v) bovine serum albumin, 0.01% (v/v) Triton X-100] were added and the mixture was incubated for 15 min at 22° C. to allow pre-binding of the test compounds to the enzyme before the start of the kinase reaction. Then the kinase reaction was started by the addition of 3 μL of a solution of ATP (1.67 μM=>final conc. in the 5 μL assay volume is 1 μM) and peptide substrate (50 μM=>final conc. in the 5 μL assay volume is 30 μM) in assay buffer and the resulting mixture was incubated for a reaction time of 30 min at 22° C. The concentration of CSNK1D was adjusted depending of the activity of the enzyme lot and was chosen appropriate to have the assay in the linear range, a typical concentration is about 0.5 ng/μL. The reaction was stopped by the addition of 2.5 μL of “ADP-Glo-reagent” (1:1.5 fold diluted with water) and the resulting mixture was incubated at 22° C. for 1 h to convert the ATP not consumed in the kinase reaction completely to CAMP. Subsequently 2.5 μL of the “kinase detection reagent” (1.2 fold more concentrated than recommended by the producer) were added, the resulting mixture was incubated at 22° C. for 1 h and then the luminescence measured with a suitable measurement instrument (e.g. Viewlux™ from Perkin-Elmer). The amount of emitted light was taken as a measure for the amount of ADP generated and thereby for the activity of the CSNK1D.
The data were normalised (enzyme reaction without inhibitor=0% inhibition, all other assay components but no enzyme=100% inhibition).

human CSNK1D, sequence (P48730 whole entry): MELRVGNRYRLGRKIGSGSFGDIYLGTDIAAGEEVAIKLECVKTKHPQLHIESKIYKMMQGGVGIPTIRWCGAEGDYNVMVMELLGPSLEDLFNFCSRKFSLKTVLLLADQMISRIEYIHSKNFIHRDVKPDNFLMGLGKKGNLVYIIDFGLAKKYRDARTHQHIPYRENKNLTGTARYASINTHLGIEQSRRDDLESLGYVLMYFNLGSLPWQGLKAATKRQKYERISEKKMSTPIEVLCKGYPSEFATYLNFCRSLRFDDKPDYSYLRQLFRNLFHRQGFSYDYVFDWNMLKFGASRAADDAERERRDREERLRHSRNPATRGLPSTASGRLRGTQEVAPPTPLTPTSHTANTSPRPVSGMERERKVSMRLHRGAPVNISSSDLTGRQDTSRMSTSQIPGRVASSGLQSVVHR

CC(C)n1ccc(CC(=O)Nc2cc(-c3[nH]c4cccnc4c3-c3ccccn3)ccn2)n1 [Example 28, 2-(1-isopropylpyrazol-3-yl)-N-[4-[3-(2-pyridyl)-^1H-pyrrolo[3,2-b]pyridin-2-yl]-2-pyridyl]acetamide]
IC50 (LoVo cells; Homo sapiens): 636 nM
IC50 (HCT 116 cells; Homo sapiens): 586 nM
IC50 (human CSNK1D): 6.3 nM

Cn1nc(CC(=O)Nc2cc(-c3[nH]c4cccnc4c3-c3ccccn3)ccn2)cc1C1CC1 [Example 29, 2-(5-cyclopropyl-1-methyl-pyrazol-3-yl)-N-[4-[3-(2-pyridyl)-^1H-pyrrolo[3,2-b]pyridin-2-yl]-2-pyridyl]acetamide]
IC50 (LoVo cells; Homo sapiens): 782 nM
IC50 (HCT 116 cells; Homo sapiens): 518 nM
IC50 (human CSNK1D): 6.48 nM

Cc1nocc1CC(=O)Nc1cc(-c2[nH]c3cccnc3c2-c2ccccn2)ccn1 [Example 30, 2-(3-methylisoxazol-4-yl)-N-[4-[3-(2-pyridyl)-^1H-pyrrolo[3,2-b]pyridin-2-yl]-2-pyridyl]acetamide]
IC50 (LoVo cells; Homo sapiens): 10500 nM
IC50 (HCT 116 cells; Homo sapiens): 1140 nM
IC50 (human CSNK1D): 6.69 nM

O=C(Nc1cc(-c2[nH]c3nccnc3c2-c2ccccn2)ccn1)[C@@H](CC(F)F)c1ccc(F)cc1 [Example C1, reference compound]
IC50 (LoVo cells): 211 nM
IC50 (HCT 116 cells): 429 nM
IC50 (human CSNK1D): 3.92 nM

O=C(Nc1cc(-c2[nH]c3ccc(F)nc3c2-c2ccccn2)ccn1)[C@@H](CC(F)F)c1ccc(F)cc1 [Example C2, reference compound]
IC50 (LoVo cells): 115 nM
IC50 (HCT 116 cells): 184 nM
IC50 (human CSNK1D): 2.26 nM

O=C(Nc1cc(-c2[nH]c3c(OCC(F)F)ncnc3c2-c2ccccn2)ccn1)[C@@H](CC(F)F)c1ccc(F)cc1 [Example C3, reference compound]
IC50 (LoVo cells): 115 nM
IC50 (HCT 116 cells): 735 nM
IC50 (human CSNK1D): 3.27 nM
